Source: patent US20260217697A1, “COMPOUNDS COMPRISING HETEROARYL RINGS AND COMPOSITIONS AND METHODS THEREOF” (lonGen Therapeutics Co., Ltd., priority 2022, published 2026)

Biological target: T1, hTRPV3 (Homo sapiens, UniProt Q8NET8)
T1 construct: The commercially available plasmid with the full-length cDNA of hTRPV3 (791 aa) (NM_001258205.2); host or cells: HEK293T
T1 sequence (Q8NET8 1-791 isoform Q8NET8-2): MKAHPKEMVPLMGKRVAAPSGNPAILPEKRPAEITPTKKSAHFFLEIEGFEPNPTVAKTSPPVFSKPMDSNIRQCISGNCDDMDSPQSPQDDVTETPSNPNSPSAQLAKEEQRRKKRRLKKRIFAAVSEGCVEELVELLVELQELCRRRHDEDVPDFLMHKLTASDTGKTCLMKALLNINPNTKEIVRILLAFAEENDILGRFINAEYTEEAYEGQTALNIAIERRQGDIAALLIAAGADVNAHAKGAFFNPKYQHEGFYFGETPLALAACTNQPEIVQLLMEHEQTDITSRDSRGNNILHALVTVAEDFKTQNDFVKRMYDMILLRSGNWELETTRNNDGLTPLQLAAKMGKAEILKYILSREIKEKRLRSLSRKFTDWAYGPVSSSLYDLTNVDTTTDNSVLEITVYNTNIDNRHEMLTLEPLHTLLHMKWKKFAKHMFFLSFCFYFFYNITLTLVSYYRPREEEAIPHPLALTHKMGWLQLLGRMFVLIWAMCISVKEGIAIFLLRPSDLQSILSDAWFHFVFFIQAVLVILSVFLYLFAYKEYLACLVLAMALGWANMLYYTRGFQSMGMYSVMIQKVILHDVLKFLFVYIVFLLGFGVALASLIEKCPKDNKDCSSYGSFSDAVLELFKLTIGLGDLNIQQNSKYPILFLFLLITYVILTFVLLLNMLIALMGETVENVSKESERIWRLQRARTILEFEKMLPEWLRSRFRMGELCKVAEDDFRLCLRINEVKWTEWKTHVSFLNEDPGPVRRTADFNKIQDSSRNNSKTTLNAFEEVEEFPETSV
Assay: Whole-cell patch-clamp recording of hTRPV3 current in transfected HEK293T cells (2-APB induced)
Format: cell-based
Settings: current induced by 300 μM 2-APB, compounds tested up to 10 μM, room temperature
How it was run: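 HEK293T cells transiently expressing full-length hTRPV3, recorded by whole-cell patch clamp 18 h post-transfection at room temperature, with 130 mM NaCl/0.3 mM EDTA/3 mM HEPES pH 7.4 on both sides. Holding potential 0 mV; 400-ms steps to +80 and −80 mV every 2 s. Block of 2-APB-evoked current, tested up to 10 μM, fitted to Hill equation for IC50.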

SMILES | IC50 [µM]
COc1ncnc(OC)c1C(=O)Nc1nc2c(ccc3cc(C#N)ccc32)s1 [compound 71, N-(7-cyanonaphtho[1,2-d]thiazol-2-yl)-4,6-dimethoxypyrimidine-5-carboxamide] | ≥ 10
COc1ncnc(OC)c1C(=O)Nc1nc2c(cnc3cc(C(F)(F)F)ccc32)s1 [compound 72, 4,6-dimethoxy-N-(7-(trifluoromethyl)thiazolo[5,4-c]quinolin-2-yl)pyrimidine-5-carboxamide] | 1 to 10
COc1ncnc(OC)c1C(=O)Nc1nc2c(s1)C1(CCN(S(C)(=O)=O)CC1)Oc1cc(C(F)(F)F)ccc1-2 [compound 73, 4,6-dimethoxy-N-(1′-(methylsulfonyl)-7-(trifluoromethyl)spiro[chromeno[4,3-d]thiazole-4,4′-piperidin]-2-yl)pyrimidine-5-carboxamide] | 1 to 10
CCC(C)(C)C(=O)N1CC2(C1)Oc1cc(C(F)(F)F)ccc1-c1nc(NC(=O)c3c(OC)ncnc3OC)sc12 [compound 74, N-(1-(2,2-dimethylbutanoyl)-7′-(trifluoromethyl)spiro[azetidine-3,4′-chromeno[4,3-d]thiazol]-2′-yl)-4,6-dimethoxypyrimidine-5-carboxamide] | 0.1 to 1
COc1ncnc(OC)c1C(=O)Nc1nc2c(s1)C1(CN(C(=O)c3ccccc3)C1)Oc1cc(C(F)(F)F)ccc1-2 [compound 75, N-(1-benzoyl-7′-(trifluoromethyl)spiro[azetidine-3,4′-chromeno[4,3-d]thiazol]-2′-yl)-4,6-dimethoxypyrimidine-5-carboxamide] | 0.1 to 1
COc1ncnc(OC)c1C(=O)Nc1nc2c(s1)C1(CN(C(=O)c3ccco3)C1)Oc1cc(C(F)(F)F)ccc1-2 [compound 76, N-(1-(furan-2-carbonyl)-7′-(trifluoromethyl)spiro[azetidine-3,4′-chromeno[4,3-d]thiazol]-2′-yl)-4,6-dimethoxypyrimidine-5-carboxamide] | 1 to 10
CCCCOC(=O)N1CC2(C1)Oc1cc(C(F)(F)F)ccc1-c1nc(NC(=O)c3c(OC)ncnc3OC)sc12 [compound 77, butyl 2′-(4,6-dimethoxypyrimidine-5-carboxamido)-7′-(trifluoromethyl)spiro[azetidine-3,4′-chromeno[4,3-d]thiazole]-1-carboxylate] | 0.1 to 1
CCOC(=O)N1CC2(C1)Oc1cc(C(F)(F)F)ccc1-c1nc(NC(=O)c3c(OC)ncnc3OC)sc12 [compound 78, ethyl 2′-(4,6-dimethoxypyrimidine-5-carboxamido)-7′-(trifluoromethyl)spiro[azetidine-3,4′-chromeno[4,3-d]thiazole]-1-carboxylate] | 0.1 to 1
CCC1(CC)Oc2cc(C(F)(F)F)ccc2-c2nc(NC(=O)c3c(OC)nc(O)nc3OC)sc21 [compound 79] | ≥ 10
CCC1(CC)Oc2cc(C(F)(F)F)ccc2-c2nc(NC(=O)c3c(OC)nc(N)nc3OC)sc21 [compound 80, 2-amino-N-(4,4-diethyl-7-(trifluoromethyl)-4H-chromeno[4,3-d]thiazol-2-yl)-4,6-dimethoxypyrimidine-5-carboxamide] | ≥ 10
C#Cc1ccc2c(c1)OC(CC)(CC)c1sc(NC(=O)c3c(OC)ncnc3OC)nc1-2 [compound 81, N-(4,4-diethyl-7-ethynyl-4H-chromeno[4,3-d]thiazol-2-yl)-4,6-dimethoxypyrimidine-5-carboxamide] | 0.1 to 1
COc1ncnc(OC)c1C(=O)Nc1nc2c(s1)CCOc1cc(C(F)(F)F)ccc1-2 [compound 82, 4,6-dimethoxy-N-(8-(trifluoromethyl)-4,5-dihydrobenzo[2,3]oxepino[4,5-d]thiazol-2-yl)pyrimidine-5-carboxamide] | 0.1 to 1
CCC1(CC)Oc2ccc(C(F)(F)F)cc2-c2nc(NC(=O)c3c(OC)ncnc3OC)sc21 [compound 83, N-(4,4-diethyl-8-(trifluoromethyl)-4H-chromeno[4,3-d]thiazol-2-yl)-4,6-dimethoxypyrimidine-5-carboxamide] | ≥ 10
COc1ncnc(OC)c1C(=O)Nc1nc2c(s1)Cc1cc(C(F)(F)F)ccc1-2 [compound 84, 4,6-dimethoxy-N-(6-(trifluoromethyl)-8H-indeno[1,2-d]thiazol-2-yl)pyrimidine-5-carboxamide] | 1 to 10
COc1ncnc(OC)c1C(=O)Nc1nc2c(s1)C(C)(C)Nc1cc(C(F)(F)F)ccc1-2 [compound 85, N-(4,4-dimethyl-7-(trifluoromethyl)-4,5-dihydrothiazolo[5,4-c]quinolin-2-yl)-4,6-dimethoxypyrimidine-5-carboxamide] | 1 to 10
COc1ncnc(OC)c1C(=O)Nc1nc2c(s1)COc1ccc(Cl)cc1-2 [compound 86, N-(8-chloro-4H-chromeno[4,3-d]thiazol-2-yl)-4,6-dimethoxypyrimidine-5-carboxamide] | 1 to 10
COc1ncnc(OC)c1C(=O)Nc1nc2c(s1)C(C)(C)N(C)c1cc(C(F)(F)F)ccc1-2 [compound 87, 4,6-dimethoxy-N-(4,4,5-trimethyl-7-(trifluoromethyl)-4,5-dihydrothiazolo[5,4-c]quinolin-2-yl)pyrimidine-5-carboxamide] | 0.1 to 1
C=CCN1c2cc(C(F)(F)F)ccc2-c2nc(NC(=O)c3c(OC)ncnc3OC)sc2C1(C)C [compound 88, N-(5-allyl-4,4-dimethyl-7-(trifluoromethyl)-4,5-dihydrothiazolo[5,4-c]quinolin-2-yl)-4,6-dimethoxypyrimidine-5-carboxamide] | 0.1 to 1
CCC1(CC)Oc2cc(C(F)(F)F)ccc2-c2nc(NC(=O)c3cc(OC)nnc3Cl)sc21 [compound 89, 3-chloro-N-(4,4-diethyl-7-(trifluoromethyl)-4H-chromeno[4,3-d]thiazol-2-yl)-6-methoxypyridazine-4-carboxamide] | ≥ 10
CCC1(CC)Oc2cc(C(F)(F)F)ccc2-c2nc(NC(=O)c3cc(Cl)nnc3OC)sc21 [compound 90, 6-chloro-N-(4,4-diethyl-7-(trifluoromethyl)-4H-chromeno[4,3-d]thiazol-2-yl)-3-methoxypyridazine-4-carboxamide] | 1 to 10
CCC1(CC)Oc2cc(C(F)(F)F)ccc2-c2nc(NC(=O)c3cc(OC)nnc3OC)sc21 [compound 91, N-(4,4-diethyl-7-(trifluoromethyl)-4H-chromeno[4,3-d]thiazol-2-yl)-3,6-dimethoxypyridazine-4-carboxamide] | ≥ 10
COC(=O)N1CC2(C1)Oc1cc(C(F)(F)F)ccc1-c1nc(NC(=O)c3c(OC)ncnc3OC)sc12 [compound 92, methyl 2′-(4,6-dimethoxypyrimidine-5-carboxamido)-7′-(trifluoromethyl)spiro[azetidine-3,4′-chromeno[4,3-d]thiazole]-1-carboxylate] | 0.1 to 1
CCC1(CC)Oc2cc(C(F)(F)F)ccc2-c2nc(NC(=O)c3c(C)n[nH]c3C)sc21 [compound 93, N-(4,4-diethyl-7-(trifluoromethyl)-4H-chromeno[4,3-d]thiazol-2-yl)-3,5-dimethyl-1H-pyrazole-4-carboxamide] | 1 to 10
CCC1(CC)Oc2cc(C(F)(F)F)ccc2-c2nc(NC(=O)c3c[nH]nc3OC)sc21 [compound 94, N-(4,4-diethyl-7-(trifluoromethyl)-4H-chromeno[4,3-d]thiazol-2-yl)-3-methoxy-1H-pyrazole-4-carboxamide] | ≥ 10
COc1ncnc(OC)c1C(=O)Nc1nc2c(s1)-c1ccc(C(F)(F)F)cc1OC21CC[S+]([O-])CC1 (stereo not shown) [compound 95, 4,6-dimethoxy-N-(1′-oxido-7-(trifluoromethyl)-2′,3′,5′,6′-tetrahydrospiro[chromeno[3,4-d]thiazole-4,4′-thiopyran]-2-yl)pyrimidine-5-carboxamide] | 1 to 10
CCC1(CC)Oc2cc(C(F)(F)F)ccc2-c2nc(NC(=O)c3nccnc3OC)sc21 [compound 96, N-(4,4-diethyl-7-(trifluoromethyl)-4H-chromeno[4,3-d]thiazol-2-yl)-3-methoxypyrazine-2-carboxamide] | 1 to 10
[2H]C([2H])([2H])Oc1ncnc(OC([2H])([2H])[2H])c1C(=O)Nc1nc2c(s1)C(CC)(CC)Oc1cc(C(F)(F)F)ccc1-2 [compound 97, N-(4,4-diethyl-7-(trifluoromethyl)-4H-chromeno[4,3-d]thiazol-2-yl)-4,6-bis(methoxy-d3)pyrimidine-5-carboxamide] | 0.1 to 1
CCC1(CC)Oc2cc(C(F)(F)F)ccc2-c2nc(NC(=O)c3c(OC)ccnc3OC)sc21 [compound 98, N-(4,4-diethyl-7-(trifluoromethyl)-4H-chromeno[4,3-d]thiazol-2-yl)-2,4-dimethoxynicotinamide] | 0.1 to 1
